From patent US4490370A, “Naphthylglycyl cephalosporin derivatives” (priority 1983, dated 1984)
Values after ≈ are worked out from the molar mass of the structure shown. Read-outs that look alike come from different tables or passages of the source.

What was measured:
Format in all cases: cell-based
H. influ. = assay: Agar dilution MIC, H. influenza; conditions: read-out: MIC
Source text: (§1) The following Tables present typical minimum inhibitory concentrations (MIC's) in μg/ml for the compounds when evaluated against the indicated microorganisms.

Klebsiella = assay: Agar dilution MIC, Klebsiella; conditions: Klebsiella; Table I, strain X26; read-out: MIC
Source text: (§2) A typical and preferred compound provided by this invention is 7-(2-naphthylglycylamido)-3-methyl-3-cephem-4-carboxylic acid, the compound of Example 3. The antibacterial activity of this compound and several others of the invention has been determined in standard in vitro agar dilution assays against a variety of gram positive microorganisms. The following Tables present typical minimum inhibitory concentrations (MIC's) in μg/ml for the compounds when evaluated against the indicated microorganisms. MIC's for several known compounds are also presented for comparison.

Staph. aureus = assay: Agar dilution MIC, Staph. aureus; conditions: Staphylococcus aureus
Source text: as §1

Strep. PN = assay: Agar dilution MIC, Strep. PN; conditions: Table I, strain PARK; read-out: MIC
Source text: as §1

Staph. epi = assay: Agar dilution MIC, Staph. epi; conditions: read-out: MIC
Source text: as §1

Strep. A = assay: Agar dilution MIC, Strep. A; conditions: Table I, strain C203; read-out: MIC
Source text: as §2

[1] = Table I, strain V41, read-out: MIC
[2] = Table I, strain X1.1, read-out: MIC
[3] = Table I, strain X400, read-out: MIC
[4] = Table II, strain S224, read-out: MIC
[5] = Table II, strain S225, read-out: MIC
[6] = Table II, strain S226, read-out: MIC
[7] = Table II, strain S227, read-out: MIC
[8] = Table II, strain S228, read-out: MIC
[9] = Table II, strain S229, read-out: MIC
[10] = Table II, strain S230, read-out: MIC
[11] = Table II, strain S231, read-out: MIC
[12] = Table II, strain S234, read-out: MIC
[13] = Table II, strain S237, read-out: MIC
[14] = Table II, strain S238, read-out: MIC
[15] = Table II, strain S239, read-out: MIC
[16] = Table II expanded spectrum, strain EPI1

SMILES | MIC (H. influ.; Table II, strain M366) [µg/mL] | MIC (H. influ.; Table II, strain R465) [µg/mL] | MIC (H. influ.; Table II, strain STEL) [µg/mL] | MIC (Staph. aureus; [4]) [µg/mL] | MIC (Staph. aureus; [5]) [µg/mL] | MIC (Staph. aureus; [6]) [µg/mL] | MIC (Staph. aureus; [7]) [µg/mL] | MIC (Staph. aureus; [8]) [µg/mL] | MIC (Staph. aureus; [9]) [µg/mL] | MIC (Staph. aureus; [10]) [µg/mL] | MIC (Staph. aureus; [11]) [µg/mL] | MIC (Staph. aureus; [12]) [µg/mL] | MIC (Staph. aureus; [13]) [µg/mL] | MIC (Staph. aureus; [14]) [µg/mL] | MIC (Staph. aureus; [15]) [µg/mL] | MIC (Staph. epi; [16]) [µg/mL] | MIC (Staph. epi; Table II, strain 269) [µg/mL] | MIC (Staph. epi; Table II, strain 270) [µg/mL] | MIC (Staph. epi; Table II, strain 285) [µg/mL] | MIC (Staph. epi; Table II, strain 286) [µg/mL] | further results
CC1=C(C(=O)O)N2C(=O)C(NC(=O)[C@H](N)c3ccc4cc(Cl)ccc4c3)C2SC1 (stereo partly drawn) [Example 7, D-7-(6-chloronaphth-2-ylglycylamido)-3-methyl-3-cephem-4-carboxylic acid] | > 64 | 32 (≈ 74.1 µM) | > 64 | 0.5 (≈ 1.16 µM) | 0.5 (≈ 1.16 µM) | 1 (≈ 2.32 µM) | 0.5 (≈ 1.16 µM) | 0.5 (≈ 1.16 µM) | 1 (≈ 2.32 µM) | 0.5 (≈ 1.16 µM) | 0.25 (≈ 0.579 µM) | 1 (≈ 2.32 µM) | 0.5 (≈ 1.16 µM) | 1 (≈ 2.32 µM) | 1 (≈ 2.32 µM) | 8 (≈ 18.5 µM) | 4 (≈ 9.26 µM) | 4 (≈ 9.26 µM) | 2 (≈ 4.63 µM) | 1 (≈ 2.32 µM) | MIC (H. influ.; Table I, strain BRUN): 32 µg/mL (≈ 74.1 µM); MIC (H. influ.; Table II, strain 76): 16 µg/mL (≈ 37 µM); MIC (H. influ.; Table II, strain 1930): 16 µg/mL (≈ 37 µM); MIC (H. influ.; Table II, strain C.L.): 32 µg/mL (≈ 74.1 µM); MIC (H. influ.; Table II, strain HESS): 32 µg/mL (≈ 74.1 µM); MIC (Klebsiella): 8 µg/mL (≈ 18.5 µM); MIC (Staph. aureus; [1]): 8 µg/mL (≈ 18.5 µM); MIC (Staph. aureus; [2]): 0.25 µg/mL (≈ 0.579 µM); MIC (Staph. aureus; [3]): 64 µg/mL (≈ 148 µM); MIC (Strep. PN): 0.25 µg/mL (≈ 0.579 µM); MIC (Staph. epi; Table I, strain 222): 0.5 µg/mL (≈ 1.16 µM); MIC (Staph. epi; Table I, strain EPI1): 4 µg/mL (≈ 9.26 µM); MIC (Strep. A): 0.06 µg/mL (≈ 0.139 µM)
COCC1=C(C(=O)O)N2C(=O)C(NC(=O)[C@H](N)c3ccc4ccccc4c3)C2SC1 (stereo partly drawn) [Example 8, 7-(2-Naphthylglycylamido)-3-methoxymethyl-3-cephem-4-carboxylic acid] | > 64 | 16 (≈ 37.4 µM) | > 64 | 0.5 (≈ 1.17 µM) | 0.5 (≈ 1.17 µM) | 1 (≈ 2.34 µM) | 0.5 (≈ 1.17 µM) | 0.5 (≈ 1.17 µM) | 1 (≈ 2.34 µM) | 0.5 (≈ 1.17 µM) | 0.5 (≈ 1.17 µM) | 1 (≈ 2.34 µM) | 0.5 (≈ 1.17 µM) | 1 (≈ 2.34 µM) | 1 (≈ 2.34 µM) | 4 (≈ 9.36 µM) | 2 (≈ 4.68 µM) | 2 (≈ 4.68 µM) | 1 (≈ 2.34 µM) | 0.5 (≈ 1.17 µM) | MIC (H. influ.; Table II, strain 76): 8 µg/mL (≈ 18.7 µM); MIC (H. influ.; Table II, strain 105): 8 µg/mL (≈ 18.7 µM); MIC (H. influ.; Table II, strain 158): 8 µg/mL (≈ 18.7 µM); MIC (H. influ.; Table II, strain 164): 8 µg/mL (≈ 18.7 µM); MIC (H. influ.; Table II, strain 169): 8 µg/mL (≈ 18.7 µM); MIC (H. influ.; Table II, strain 171): 8 µg/mL (≈ 18.7 µM); MIC (H. influ.; Table II, strain 312): 8 µg/mL (≈ 18.7 µM); MIC (H. influ.; Table II, strain 1930): 16 µg/mL (≈ 37.4 µM); MIC (H. influ.; Table II, strain 4842): 8 µg/mL (≈ 18.7 µM); MIC (H. influ.; Table II, strain C.L.): 8 µg/mL (≈ 18.7 µM); MIC (H. influ.; Table II, strain HESS): 8 µg/mL (≈ 18.7 µM); MIC (Staph. epi; Table II, strain 219): 0.5 µg/mL (≈ 1.17 µM)
COc1ccc2cc([C@@H](N)C(=O)NC3C(=O)N4C(C(=O)O)=C(C)CSC34)ccc2c1 (stereo partly drawn) [Example 10, D-7-(6-Methoxy-2-naphthyl)glycylamido-3-methyl-3-cephem-4-carboxylic acid] | 16 (≈ 37.4 µM) | 16 (≈ 37.4 µM) | 16 (≈ 37.4 µM) | 0.5 (≈ 1.17 µM) | 0.5 (≈ 1.17 µM) | 1 (≈ 2.34 µM) | 1 (≈ 2.34 µM) | 0.5 (≈ 1.17 µM) | 1 (≈ 2.34 µM) | 0.5 (≈ 1.17 µM) | 0.25 (≈ 0.585 µM) | 1 (≈ 2.34 µM) | 1 (≈ 2.34 µM) | 1 (≈ 2.34 µM) | 1 (≈ 2.34 µM) | 4 (≈ 9.36 µM) | 2 (≈ 4.68 µM) | 4 (≈ 9.36 µM) | 2 (≈ 4.68 µM) | 0.5 (≈ 1.17 µM) | MIC (H. influ.; Table I, strain BRUN): 16 µg/mL (≈ 37.4 µM); MIC (H. influ.; Table II, strain 1930): 8 µg/mL (≈ 18.7 µM); MIC (H. influ.; Table II, strain C.L.): 8 µg/mL (≈ 18.7 µM); MIC (H. influ.; Table II, strain HESS): 8 µg/mL (≈ 18.7 µM); MIC (Klebsiella): 4 µg/mL (≈ 9.36 µM); MIC (Staph. aureus; Table I, strain S13E): 16 µg/mL (≈ 37.4 µM); MIC (Staph. aureus; [1]): 16 µg/mL (≈ 37.4 µM); MIC (Staph. aureus; [2]): 0.25 µg/mL (≈ 0.585 µM); MIC (Staph. aureus; [3]): 64 µg/mL (≈ 150 µM); MIC (Strep. PN): 0.125 µg/mL (≈ 0.292 µM); MIC (Staph. epi; Table I, strain 222): 1 µg/mL (≈ 2.34 µM); MIC (Staph. epi; Table I, strain EPI1): 4 µg/mL (≈ 9.36 µM); MIC (Staph. epi; Table II, strain 219): 5 µg/mL (≈ 11.7 µM); MIC (Strep. A): 0.125 µg/mL (≈ 0.292 µM)
CC1=C(C(=O)O)N2C(=O)C(NC(=O)[C@H](N)c3ccc4cc(O)ccc4c3)C2SC1 (stereo partly drawn) [Example 11, D-7-(6-hydroxy-2-naphthylglycyl-amido)-3-methyl-3-cephem-4-carboxylic acid] | > 64 | 16 (≈ 38.7 µM) | > 64 | 0.5 (≈ 1.21 µM) | 0.5 (≈ 1.21 µM) | 1 (≈ 2.42 µM) | 0.5 (≈ 1.21 µM) | 0.5 (≈ 1.21 µM) | 1 (≈ 2.42 µM) | 0.5 (≈ 1.21 µM) | 0.5 (≈ 1.21 µM) | 1 (≈ 2.42 µM) | 1 (≈ 2.42 µM) | 1 (≈ 2.42 µM) | 1 (≈ 2.42 µM) | 4 (≈ 9.67 µM) | 2 (≈ 4.84 µM) | 4 (≈ 9.67 µM) | 2 (≈ 4.84 µM) | 1 (≈ 2.42 µM) | MIC (H. influ.; Table I, strain BRUN): 8 µg/mL (≈ 19.3 µM); MIC (Klebsiella): 4 µg/mL (≈ 9.67 µM); MIC (Staph. aureus; [1]): 8 µg/mL (≈ 19.3 µM); MIC (Staph. aureus; [2]): 0.5 µg/mL (≈ 1.21 µM); MIC (Staph. aureus; [3]): 32 µg/mL (≈ 77.4 µM); MIC (Strep. PN): 0.25 µg/mL (≈ 0.605 µM); MIC (Staph. epi; Table I, strain 222): 1 µg/mL (≈ 2.42 µM); MIC (Staph. epi; Table I, strain EPI1): 4 µg/mL (≈ 9.67 µM); MIC (Staph. epi; Table II, strain 219): 0.5 µg/mL (≈ 1.21 µM); MIC (Strep. A): 0.125 µg/mL (≈ 0.302 µM)
